Results published in patent publication US20230123334A1, “AMINO LIPID COMPOUND, PREPARATION METHOD THEREFOR, AND APPLICATION THEREOF” (SHENZHEN SHENXIN BIOTECHNOLOGY CO., LTD., priority 2020, published 2023).

These compounds were tested on HEK293 cells (assay: Preliminary screening as DNA vectors, GFP transfection of HEK293 cells). Conditions: amino lipid/DOPE liposome with 75 ng plasmid DNA (psin-EGFP-IRES-Puro); number of GFP-expressing cells divided by total nuclei (Hoechst).
Format: cell-based
Experimental: Cell line: HEK293 cells (ATCC CRL-1573™)
Medium: DMEM supplemented with 10% fetal bovine serum (Invitrogen)
Mode of screening: cell transfection on 96-well plates
Detection (readout): percentage of the number of GFP fluorescent cells relative to the total number of cells (the total number of cells was measured using nucleus dye Hoechst—see FIG. 2). Lipofectamine2000 (Invitrogen) was used as positive control, according to the manufacturer's instructions.
Method: an 8-channel pipette was used for sample addition. The contents shown were for a single well of a 96-well flat plate.
1. The compound (0.01 mmol) prepared in Example 1 was dissolved in 1 mL of anhydrous ethanol. After ultrasonically dissolved, 10 μL of the resultant amino lipid solution in ethanol was taken and mixed with 5 μL of DOPE solution in ethanol (0.01 m), and then to the obtained mixture was added 35 μL of 0.2M sodium acetate buffer (pH 5.6), and 50 μL of liposome solution was prepared by vortex at a constant rotating speed for 30 s. 4 μL was taken from the 50 μL liposome solution and added to 46 μL of 0.02M sodium acetate buffer (pH 5.6), and the final liposome solution was formed by vortex at a constant rotating speed for 30 s. 5 μL was taken from the final liposome solution and mixed with 75 ng plasmid DNA (psin-EGFP-IRES-Puro, Clontech) dissolved in 5 μL of 0.02 M sodium acetate buffer, and was allowed to stay at room temperature for 30 min to form a lipid/DNA transfection complex.
2. 10 μL of the lipid/DNA transfection complex was incubated at room temperature for 30 min, followed by addition of 90 μL of fresh resuspended cells (3-5×10^4 cells) and mixing with a pipette. 100 μL of cells+lipid/DNA complex was transferred to separate wells of a 96-well culture plate immediately, and placed in an incubator containing 5% CO2 at 37° C.
3. Hoechst33258 (Invitrogen) was added at a final concentration of 0.2 μg/mL to the cells 20 to 24 hours after initial cell transfection, and cultured in darkness at 37° C. for 15 min. Afterwards, the cells were washed once with a PBS solution, and then added with medium for culture for 20 to 24 h.
4. The cells were placed in a high-throughput confocal microscope (Molecular Devices ImageXpress), and four visual fields of the image of the cells were captured for each well, and images at three laser wavelengths were captured for each sample: bright field images of cells (FIG. 2(a) and FIG. 2(b)), Hoechst-staining images showing total nuclei (FIG. 2(c) and FIG. 2(d)) and GFP images showing success in transfection with the plasmid DNA and the expression of GFP (FIG. 2(e) and FIG. 2(f)). MetaXpress software was used to separately count the cells in the Hoechst-staining images and GFP images, and then the number of cells expressing GFP was divided by the total number of nuclei to give the absolute cell transfection efficiency. The absolute transfection efficiency was calculated as follows: […]

| SMILES | Absolute DNA transfection efficiency in HEK293 cells |
| --- | --- |
| CCCCCCCCNc1nc(NCCCN2CCN(C)CC2)nc(SCCCCCCC)n1 [S7N8 D9] | 14.9% |
| CCCCCCCCNc1nc(NCC2CCN(C)CC2)nc(SCCCCCCC)n1 [S7N8 D10] | 9.5% |
| CCCCCCCCCNc1nc(NCCN(C)C)nc(SCCCCCCC)n1 [S7N9 D1] | 28.8% |
| CCCCCCCCCNc1nc(NCCN2CCOCC2)nc(SCCCCCCC)n1 [S7N9 D2] | 13.9% |
| CCCCCCCCCNc1nc(NCCN2CCCC2)nc(SCCCCCCC)n1 [S7N9 D3] | 12.3% |
| CCCCCCCCCNc1nc(NCCN2CCCCC2)nc(SCCCCCCC)n1 [S7N9 D4] | 13.0% |
| CCCCCCCCCNc1nc(NCCN2CCN(C)CC2)nc(SCCCCCCC)n1 [S7N9 D5] | 22.0% |
| CCCCCCCCCNc1nc(NCCCN(C)C)nc(SCCCCCCC)n1 [S7N9 D6] | 25.9% |
| CCCCCCCCCNc1nc(NCCN(CC)CC)nc(SCCCCCCC)n1 [S7N9 D7] | 33.2% |
| CCCCCCCCCNc1nc(NCCCN2CCOCC2)nc(SCCCCCCC)n1 [S7N9 D8] | 4.6% |
| CCCCCCCCCNc1nc(NCCCN2CCN(C)CC2)nc(SCCCCCCC)n1 [S7N9 D9] | 22.8% |
| CCCCCCCCCNc1nc(NCC2CCN(C)CC2)nc(SCCCCCCC)n1 [S7N9 D10] | 15.0% |
| CCCCCCCCCCCNc1nc(NCCN(C)C)nc(SCCCCCCC)n1 [S7N11 D1] | 20.3% |
| CCCCCCCCCCCNc1nc(NCCN2CCOCC2)nc(SCCCCCCC)n1 [S7N11 D2] | 31.1% |
| CCCCCCCCCCCNc1nc(NCCN2CCCC2)nc(SCCCCCCC)n1 [S7N11 D3] | 25.3% |
| CCCCCCCCCCCNc1nc(NCCN2CCCCC2)nc(SCCCCCCC)n1 [S7N11 D4] | 6.9% |
| CCCCCCCCCCCNc1nc(NCCN2CCN(C)CC2)nc(SCCCCCCC)n1 [S7N11 D5] | 43.7% |
| CCCCCCCCCCCNc1nc(NCCCN(C)C)nc(SCCCCCCC)n1 [S7N11 D6] | 42.1% |
| CCCCCCCCCCCNc1nc(NCCN(CC)CC)nc(SCCCCCCC)n1 [S7N11 D7] | 9.6% |

| SMILES | Absolute DNA transfection efficiency in HEK293 cells |
| --- | --- |
| CCCCCCCCCCCNc1nc(NCCCN2CCOCC2)nc(SCCCCCCC)n1 [S7N11 D8] | 13.9% |
| CCCCCCCCCCCNc1nc(NCCCN2CCN(C)CC2)nc(SCCCCCCC)n1 [S7N11 D9] | 43.9% |
| CCCCCCCCCCCNc1nc(NCC2CCN(C)CC2)nc(SCCCCCCC)n1 [S7N11 D10] | 45.9% |
| CCCCCCCCCCCCNc1nc(NCCN(C)C)nc(SCCCCCCC)n1 [S7N12 D1] | 18.2% |
| CCCCCCCCCCCCNc1nc(NCCN2CCOCC2)nc(SCCCCCCC)n1 [S7N12 D2] | 25.6% |
| CCCCCCCCCCCCNc1nc(NCCN2CCCC2)nc(SCCCCCCC)n1 [S7N12 D3] | 17.4% |
| CCCCCCCCCCCCNc1nc(NCCN2CCCCC2)nc(SCCCCCCC)n1 [S7N12 D4] | 9.7% |
| CCCCCCCCCCCCNc1nc(NCCN2CCN(C)CC2)nc(SCCCCCCC)n1 [S7N12 D5] | 35.1% |
| CCCCCCCCCCCCNc1nc(NCCCN(C)C)nc(SCCCCCCC)n1 [S7N12 D6] | 54.6% |
| CCCCCCCCCCCCNc1nc(NCCN(CC)CC)nc(SCCCCCCC)n1 [S7N12 D7] | 5.5% |
| CCCCCCCCCCCCNc1nc(NCCCN2CCOCC2)nc(SCCCCCCC)n1 [S7N12 D8] | 17.7% |
| CCCCCCCCCCCCNc1nc(NCCCN2CCN(C)CC2)nc(SCCCCCCC)n1 [S7N12 D9] | 46.4% |
| CCCCCCCCCCCCNc1nc(NCC2CCN(C)CC2)nc(SCCCCCCC)n1 [S7N12 D10] | 45.7% |
| CCCCCCCCCCCCCNc1nc(NCCN(C)C)nc(SCCCCCCC)n1 [S7N13 D1] | 11.7% |
| CCCCCCCCCCCCCNc1nc(NCCN2CCOCC2)nc(SCCCCCCC)n1 [S7N13 D2] | 22.1% |
| CCCCCCCCCCCCCNc1nc(NCCN2CCCC2)nc(SCCCCCCC)n1 [S7N13 D3] | 17.9% |
| CCCCCCCCCCCCCNc1nc(NCCN2CCCCC2)nc(SCCCCCCC)n1 [S7N13 D4] | 6.4% |
| CCCCCCCCCCCCCNc1nc(NCCN2CCN(C)CC2)nc(SCCCCCCC)n1 [S7N13 D5] | 23.3% |
| CCCCCCCCCCCCCNc1nc(NCCCN(C)C)nc(SCCCCCCC)n1 [S7N13 D6] | 43.2% |

| SMILES | Absolute DNA transfection efficiency in HEK293 cells |
| --- | --- |
| CCCCCCCCCCCCCNc1nc(NCCN(CC)CC)nc(SCCCCCCC)n1 [S7N13 D7] | 3.1% |
| CCCCCCCCCCCCCNc1nc(NCCCN2CCOCC2)nc(SCCCCCCC)n1 [S7N13 D8] | 17.3% |
| CCCCCCCCCCCCCNc1nc(NCCCN2CCN(C)CC2)nc(SCCCCCCC)n1 [S7N13 D9] | 36.9% |
| CCCCCCCCCCCCCNc1nc(NCC2CCN(C)CC2)nc(SCCCCCCC)n1 [S7N13 D10] | 54.2% |
| CCCCCCCCCCCCCCCNc1nc(NCCN(C)C)nc(SCCCCCCC)n1 [S7N15 D1] | 19.5% |
| CCCCCCCCCCCCCCCNc1nc(NCCN2CCOCC2)nc(SCCCCCCC)n1 [S7N15 D2] | 14.1% |
| CCCCCCCCCCCCCCCNc1nc(NCCN2CCCC2)nc(SCCCCCCC)n1 [S7N15 D3] | 31.4% |
| CCCCCCCCCCCCCCCNc1nc(NCCN2CCCCC2)nc(SCCCCCCC)n1 [S7N15 D4] | 4.9% |
| CCCCCCCCCCCCCCCNc1nc(NCCN2CCN(C)CC2)nc(SCCCCCCC)n1 [S7N15 D5] | 20.4% |
| CCCCCCCCCCCCCCCNc1nc(NCCCN(C)C)nc(SCCCCCCC)n1 [S7N15 D6] | 15.9% |
| CCCCCCCCCCCCCCCNc1nc(NCCN(CC)CC)nc(SCCCCCCC)n1 [S7N15 D7] | 7.2% |
| CCCCCCCCCCCCCCCNc1nc(NCCCN2CCOCC2)nc(SCCCCCCC)n1 [S7N15 D8] | 7.9% |
| CCCCCCCCCCCCCCCNc1nc(NCCCN2CCN(C)CC2)nc(SCCCCCCC)n1 [S7N15 D9] | 17.6% |
| CCCCCCCCCCCCCCCNc1nc(NCC2CCN(C)CC2)nc(SCCCCCCC)n1 [S7N15 D10] | 30.9% |
| CCCCCCCCCCCCCCCCNc1nc(NCCN(C)C)nc(SCCCCCCC)n1 [S7N16 D1] | 20.0% |
| CCCCCCCCCCCCCCCCNc1nc(NCCN2CCOCC2)nc(SCCCCCCC)n1 [S7N16 D2] | 12.9% |
| CCCCCCCCCCCCCCCCNc1nc(NCCN2CCCC2)nc(SCCCCCCC)n1 [S7N16 D3] | 21.2% |
| CCCCCCCCCCCCCCCCNc1nc(NCCN2CCCCC2)nc(SCCCCCCC)n1 [S7N16 D4] | 2.9% |
